# From patent publication US20080009418A1, “Selective Inhibitors” (Alchemia LTD., priority 2004, published 2008)
# Columns and labels:
# Settings in all cases: compound at 10 μM
# [1] = molecular target: T1, Human neuropeptide Y (NPY-Y1) (Homo sapiens, UniProt P25929); experiment: Radioligand binding, human neuropeptide Y NPY-Y1 membranes, FlashPlate, [125I]-PYY
# T1 construct: purchased Perkin Elmer Biosignal
# T1 sequence (P25929 1-384): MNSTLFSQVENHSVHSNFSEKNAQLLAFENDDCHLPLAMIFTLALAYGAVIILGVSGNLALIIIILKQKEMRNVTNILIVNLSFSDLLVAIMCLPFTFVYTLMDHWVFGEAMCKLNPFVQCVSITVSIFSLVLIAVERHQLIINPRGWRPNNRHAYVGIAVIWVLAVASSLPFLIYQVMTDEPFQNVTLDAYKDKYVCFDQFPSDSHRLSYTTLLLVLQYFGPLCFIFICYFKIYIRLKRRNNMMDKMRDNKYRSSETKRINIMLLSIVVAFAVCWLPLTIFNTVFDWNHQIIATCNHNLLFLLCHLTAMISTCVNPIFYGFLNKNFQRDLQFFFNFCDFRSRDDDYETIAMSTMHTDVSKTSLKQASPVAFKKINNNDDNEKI
# Method in brief: (§1)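 Cloned human receptor membranes were coated onto FlashPlate wells and incubated with radioligand and compound (added from a 0.5 mM DMSO daughter plate) for 1 hour at room temperature in the dark. Scintillation counting gave percent inhibition, with DMSO defining total and reference ligand defining non-specific binding.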
# Human neurokinin (NK1) = molecular target: T2, Human neurokinin (NK1) (Homo sapiens, UniProt P25103); experiment: Radioligand binding, human neurokinin NK1 membranes, filtration, [125I]-Substance P
# T2 construct: purchased Perkin Elmer Biosignal
# Method in brief: (§2)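 Membranes from cloned human receptors were incubated with compound and radioligand for 1 hour at room temperature. Bound ligand was collected on 0.3% PEI-soaked filters, washed with cold 50 mM Tris-HCl pH 7.4, and counted by scintillation. Percent inhibition was computed against DMSO totals and reference-ligand nonspecific wells.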
# Human μ-opioid (MOP) = molecular target: T3, Human μ-opioid (MOP) (Homo sapiens, UniProt P35372); experiment: Radioligand binding, human μ-opioid (MOP) membranes, FlashPlate, [3H]-Naloxone
# T3 construct: purchased Perkin Elmer Biosignal
# Method in brief: as §1
# Human δ-opioid (DOP) = molecular target: T4, Human δ-opioid (DOP) (Homo sapiens, UniProt P41143); experiment: Radioligand binding, human δ-opioid (DOP) membranes, FlashPlate, [3H]-Bremazocine
# T4 construct: purchased Perkin Elmer Biosignal
# Method in brief: as §1
# [2] = molecular target: T5, Human melanin-concentrating hormone (MCH1) (Homo sapiens, UniProt Q99705); experiment: Radioligand binding, human melanin-concentrating hormone MCH1 membranes, FlashPlate, [125I]-S36057
# T5 construct: purchased Perkin Elmer Biosignal
# Method in brief: as §1
# Human κ-Opioid (KOP) = molecular target: T6, Human κ-Opioid (KOP) (Homo sapiens, UniProt P41145); experiment: Radioligand binding, human κ-opioid (KOP) membranes, filtration, [3H]-Diprenorphine
# T6 construct: purchased Perkin Elmer Biosignal
# Method in brief: as §2
# Human Melanocortin (MC3) = molecular target: T7, Human Melanocortin (MC3) (Homo sapiens, UniProt P41968); experiment: Radioligand binding, human melanocortin MC3 membranes, FlashPlate, [125I]-NDP-αMSH
# T7 construct: purchased Perkin Elmer Biosignal
# Method in brief: as §1
# Human melanocortin (MC5) = molecular target: T8, Human melanocortin (MC5) (Homo sapiens, UniProt P33032); experiment: Radioligand binding, human melanocortin MC5 membranes, FlashPlate, [125I]-NDP-αMSH
# T8 construct: purchased Perkin Elmer Biosignal
# Method in brief: as §1
# Human Melanocortin (MC4) = molecular target: T9, Human Melanocortin (MC4) (Homo sapiens, UniProt P32245); experiment: Radioligand binding, human melanocortin MC4 membranes, FlashPlate, [125I]-NDP-αMSH
# T9 construct: purchased Perkin Elmer Biosignal
# Method in brief: as §1
# Human opioid (ORL1) = molecular target: T10, Human opioid (ORL1) (Homo sapiens, UniProt P41146); experiment: Radioligand binding, human opioid ORL1 membranes, FlashPlate, [125I]-Nociceptin
# T10 construct: purchased Perkin Elmer Biosignal
# Method in brief: as §1
# Mouse urotensin (mUR2) = molecular target: T11, Mouse urotensin (mUR2) (Mus musculus, UniProt Q8VIH9); experiment: Radioligand binding, mouse urotensin mUR2 membranes, FlashPlate, [125I]-Urotensin II
# T11 construct: purchased Perkin Elmer Biosignal
# T11 sequence (Q8VIH9 1-385): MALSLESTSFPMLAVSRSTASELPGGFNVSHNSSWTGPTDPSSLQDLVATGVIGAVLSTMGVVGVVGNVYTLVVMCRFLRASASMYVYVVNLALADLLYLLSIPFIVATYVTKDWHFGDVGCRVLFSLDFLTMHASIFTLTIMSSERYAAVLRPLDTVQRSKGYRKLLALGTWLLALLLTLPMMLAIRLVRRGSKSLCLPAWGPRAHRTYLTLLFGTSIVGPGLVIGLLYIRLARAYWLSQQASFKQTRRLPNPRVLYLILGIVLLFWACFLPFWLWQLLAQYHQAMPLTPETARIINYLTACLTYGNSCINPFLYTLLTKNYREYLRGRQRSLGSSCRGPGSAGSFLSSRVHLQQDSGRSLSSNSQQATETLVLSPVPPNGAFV
# Method in brief: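 Cloned mouse urotensin (mUR2) receptor membranes from Perkin Elmer Biosignal were immobilized in FlashPlate microplates using a proprietary coating. Each well got 19.5 μl buffer, then 0.5 μl of DMSO, reference ligand, or compound. Adding 5 μl of [125I]-Urotensin II, diluted to 5× final concentration in binding buffer, started binding. Plates were sealed with TopSeal-A and incubated 1 hour at room temperature in the dark. Wells were counted for 30 seconds each on a TopCount after a 60-second delay, and percentage inhibition was calculated.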
# T5 sequence (Q99705 whole entry): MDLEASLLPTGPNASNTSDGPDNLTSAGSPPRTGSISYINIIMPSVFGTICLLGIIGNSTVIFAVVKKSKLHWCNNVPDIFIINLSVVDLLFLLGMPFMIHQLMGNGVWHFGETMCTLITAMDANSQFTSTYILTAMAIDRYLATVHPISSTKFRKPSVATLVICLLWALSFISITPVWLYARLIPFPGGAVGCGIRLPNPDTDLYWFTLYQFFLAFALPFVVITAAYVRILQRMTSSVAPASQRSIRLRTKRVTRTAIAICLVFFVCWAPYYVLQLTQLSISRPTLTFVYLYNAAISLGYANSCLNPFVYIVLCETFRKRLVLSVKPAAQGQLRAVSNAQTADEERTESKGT
# T7 sequence (P41968 whole entry): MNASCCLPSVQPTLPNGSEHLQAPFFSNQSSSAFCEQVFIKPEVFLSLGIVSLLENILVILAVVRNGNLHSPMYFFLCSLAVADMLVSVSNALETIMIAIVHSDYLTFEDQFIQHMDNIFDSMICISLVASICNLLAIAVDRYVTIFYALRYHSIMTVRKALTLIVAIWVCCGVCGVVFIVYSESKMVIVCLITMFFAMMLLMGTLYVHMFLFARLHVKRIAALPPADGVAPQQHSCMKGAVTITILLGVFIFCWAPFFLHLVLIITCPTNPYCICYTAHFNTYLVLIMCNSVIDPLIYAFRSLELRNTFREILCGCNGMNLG
# T4 sequence (P41143 whole entry): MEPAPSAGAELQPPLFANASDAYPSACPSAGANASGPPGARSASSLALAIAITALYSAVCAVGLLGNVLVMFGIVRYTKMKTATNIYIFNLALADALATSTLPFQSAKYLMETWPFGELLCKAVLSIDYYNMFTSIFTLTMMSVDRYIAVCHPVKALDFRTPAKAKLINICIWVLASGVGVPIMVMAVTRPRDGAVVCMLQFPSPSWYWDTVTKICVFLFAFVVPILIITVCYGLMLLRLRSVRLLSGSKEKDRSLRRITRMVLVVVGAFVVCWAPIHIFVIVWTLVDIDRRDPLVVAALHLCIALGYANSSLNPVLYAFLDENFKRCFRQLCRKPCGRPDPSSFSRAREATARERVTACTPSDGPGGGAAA
# T8 sequence (P33032 whole entry): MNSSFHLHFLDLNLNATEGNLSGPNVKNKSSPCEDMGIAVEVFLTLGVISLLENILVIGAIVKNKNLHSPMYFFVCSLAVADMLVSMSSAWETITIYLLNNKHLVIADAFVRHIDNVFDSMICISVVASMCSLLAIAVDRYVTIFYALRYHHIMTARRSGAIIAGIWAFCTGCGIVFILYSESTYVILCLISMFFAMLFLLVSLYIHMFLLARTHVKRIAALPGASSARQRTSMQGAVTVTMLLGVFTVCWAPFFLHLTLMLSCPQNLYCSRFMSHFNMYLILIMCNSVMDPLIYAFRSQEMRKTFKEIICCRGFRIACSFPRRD
# T10 sequence (P41146 whole entry): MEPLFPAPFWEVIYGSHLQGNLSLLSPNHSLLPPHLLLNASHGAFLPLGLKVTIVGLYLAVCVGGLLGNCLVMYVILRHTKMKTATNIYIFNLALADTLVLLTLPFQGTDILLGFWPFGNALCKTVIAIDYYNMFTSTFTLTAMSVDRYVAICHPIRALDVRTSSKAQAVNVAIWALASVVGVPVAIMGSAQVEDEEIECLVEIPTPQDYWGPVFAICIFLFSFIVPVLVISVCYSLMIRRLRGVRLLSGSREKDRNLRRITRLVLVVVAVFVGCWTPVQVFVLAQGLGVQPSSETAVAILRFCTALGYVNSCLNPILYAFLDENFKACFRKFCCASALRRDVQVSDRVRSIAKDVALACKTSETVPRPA
# T9 sequence (P32245 whole entry): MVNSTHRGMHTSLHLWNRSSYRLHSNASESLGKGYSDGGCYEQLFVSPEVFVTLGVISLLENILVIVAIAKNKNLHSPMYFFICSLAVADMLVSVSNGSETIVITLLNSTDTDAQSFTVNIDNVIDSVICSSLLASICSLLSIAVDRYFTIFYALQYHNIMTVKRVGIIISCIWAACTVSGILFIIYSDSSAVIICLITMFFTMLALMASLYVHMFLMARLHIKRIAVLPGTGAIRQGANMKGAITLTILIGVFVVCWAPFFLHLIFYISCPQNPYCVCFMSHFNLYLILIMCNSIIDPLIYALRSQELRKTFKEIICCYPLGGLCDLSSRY
# T6 sequence (P41145 whole entry): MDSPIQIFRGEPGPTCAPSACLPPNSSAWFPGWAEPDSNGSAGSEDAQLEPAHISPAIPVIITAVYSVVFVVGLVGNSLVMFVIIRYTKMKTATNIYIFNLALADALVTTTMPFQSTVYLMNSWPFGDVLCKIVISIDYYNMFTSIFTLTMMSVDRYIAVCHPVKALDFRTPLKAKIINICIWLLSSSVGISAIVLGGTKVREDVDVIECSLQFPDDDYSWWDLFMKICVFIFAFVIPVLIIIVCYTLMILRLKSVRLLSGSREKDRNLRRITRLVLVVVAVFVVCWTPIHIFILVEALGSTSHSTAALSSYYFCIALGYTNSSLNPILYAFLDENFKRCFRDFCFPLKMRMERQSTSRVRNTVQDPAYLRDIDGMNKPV
# T2 sequence (P25103 whole entry): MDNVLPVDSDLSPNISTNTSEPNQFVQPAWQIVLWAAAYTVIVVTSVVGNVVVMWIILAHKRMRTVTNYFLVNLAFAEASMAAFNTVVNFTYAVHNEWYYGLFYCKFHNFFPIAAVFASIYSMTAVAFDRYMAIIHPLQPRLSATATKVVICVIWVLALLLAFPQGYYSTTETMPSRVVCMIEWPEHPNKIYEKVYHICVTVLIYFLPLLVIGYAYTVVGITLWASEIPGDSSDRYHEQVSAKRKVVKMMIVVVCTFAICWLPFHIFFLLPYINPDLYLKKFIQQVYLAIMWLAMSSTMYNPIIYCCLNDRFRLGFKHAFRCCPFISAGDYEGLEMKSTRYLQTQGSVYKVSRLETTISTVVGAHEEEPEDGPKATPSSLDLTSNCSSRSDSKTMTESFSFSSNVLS
# T3 sequence (P35372 whole entry): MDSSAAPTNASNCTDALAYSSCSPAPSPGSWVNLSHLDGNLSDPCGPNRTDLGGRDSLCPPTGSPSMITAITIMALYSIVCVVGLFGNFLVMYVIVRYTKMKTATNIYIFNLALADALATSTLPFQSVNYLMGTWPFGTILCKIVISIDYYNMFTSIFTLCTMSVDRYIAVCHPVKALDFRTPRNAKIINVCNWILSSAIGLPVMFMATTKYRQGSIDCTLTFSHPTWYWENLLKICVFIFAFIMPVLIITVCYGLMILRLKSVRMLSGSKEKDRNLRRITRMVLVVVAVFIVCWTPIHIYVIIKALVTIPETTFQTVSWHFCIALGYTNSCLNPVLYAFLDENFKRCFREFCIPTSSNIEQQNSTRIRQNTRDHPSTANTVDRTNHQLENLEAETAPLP
compound,measurement,setting,value
CSC1OC(COCc2ccccc2)C(O)C(OCc2ccc3ccccc3c2)C1NC(=O)CN (stereo not shown) [compound 301],"A9: inhibition of radioligand binding, human neuropeptide Y (NPY-Y1)",[1]; [125I]-PYY,− (“−” indicates less than 50% inhibition at 10 μM)
same,"A8: inhibition of radioligand binding, human neurokinin (NK1)",Human neurokinin (NK1); [125I]-Substance P,+ (“+” indicates greater than 50% inhibition at 10 μM)
same,"A7: inhibition of radioligand binding, human μ-opioid (MOP)",Human μ-opioid (MOP); [3H]-Naloxone,− (“−” indicates less than 50% inhibition at 10 μM)
same,"A1: inhibition of radioligand binding, human δ-opioid (DOP)",Human δ-opioid (DOP); [3H]-Bremazocine,− (“−” indicates less than 50% inhibition at 10 μM)
same,"A6: inhibition of radioligand binding, human melanin-concentrating hormone (MCH1)",[2]; [125I]-S36057,− (“−” indicates less than 50% inhibition at 10 μM)
same,"A2: inhibition of radioligand binding, human κ-opioid (KOP)",Human κ-Opioid (KOP); [3H]-Diprenorphine,− (“−” indicates less than 50% inhibition at 10 μM)
same,"A3: inhibition of radioligand binding, human melanocortin (MC3)",Human Melanocortin (MC3); [125I]-NDP-αMSH,− (“−” indicates less than 50% inhibition at 10 μM)
same,"A5: inhibition of radioligand binding, human melanocortin (MC5)",Human melanocortin (MC5); [125I]-NDP-αMSH,− (“−” indicates less than 50% inhibition at 10 μM)
same,"A4: inhibition of radioligand binding, human melanocortin (MC4)",Human Melanocortin (MC4); [125I]-NDP-αMSH,− (“−” indicates less than 50% inhibition at 10 μM)
same,"A10: inhibition of radioligand binding, human opioid (ORL1)",Human opioid (ORL1); [125I]-Nociceptin,− (“−” indicates less than 50% inhibition at 10 μM)
same,"A11: inhibition of radioligand binding, mouse urotensin (mUR2)",Mouse urotensin (mUR2); [125I]-Urotensin II,− (“−” indicates less than 50% inhibition at 10 μM)
COC[C@H]1OC(OCc2ccc3ccccc3c2)[C@H](NC(=O)CNC(=N)N)[C@@H](OCc2ccc(Cl)cc2)[C@@H]1O (stereo partly shown) [compound 22],A9 radioligand binding inhibition,[1]; human NPY-Y1 membranes,− (“−” indicates less than 50% inhibition at 10 μM)
same,A8 radioligand binding inhibition,Human neurokinin (NK1); human neurokinin NK1 membranes,− (“−” indicates less than 50% inhibition at 10 μM)
same,A7 radioligand binding inhibition,Human μ-opioid (MOP); human μ-opioid (MOP) membranes,− (“−” indicates less than 50% inhibition at 10 μM)
same,A1 radioligand binding inhibition,Human δ-opioid (DOP); human δ-opioid (DOP) membranes,− (“−” indicates less than 50% inhibition at 10 μM)
same,A6 radioligand binding inhibition,[2]; human MCH1 membranes,− (“−” indicates less than 50% inhibition at 10 μM)
same,A2 radioligand binding inhibition,Human κ-Opioid (KOP); human κ-opioid (KOP) membranes,− (“−” indicates less than 50% inhibition at 10 μM)
same,A3 radioligand binding inhibition,Human Melanocortin (MC3); human melanocortin MC3 membranes,− (“−” indicates less than 50% inhibition at 10 μM)
same,A5 radioligand binding inhibition,Human melanocortin (MC5); human melanocortin MC5 membranes,+ (“+” indicates greater than 50% inhibition at 10 μM)
same,A4 radioligand binding inhibition,Human Melanocortin (MC4); human melanocortin MC4 membranes,− (“−” indicates less than 50% inhibition at 10 μM)
same,A10 radioligand binding inhibition,Human opioid (ORL1); human ORL1 membranes,− (“−” indicates less than 50% inhibition at 10 μM)
same,A11 radioligand binding inhibition,Mouse urotensin (mUR2); mouse urotensin mUR2 membranes,− (“−” indicates less than 50% inhibition at 10 μM)
CSC1OC(COCc2ccccc2)C(O)C(OCc2cccc(N)c2)C1NC(=O)Cc1c[nH]c2ccccc12 (stereo not shown) [compound 322],"A9: inhibition of radioligand binding, human neuropeptide Y (NPY-Y1)",[1]; [125I]-PYY,− (“−” indicates less than 50% inhibition at 10 μM)
same,"A8: inhibition of radioligand binding, human neurokinin (NK1)",Human neurokinin (NK1); [125I]-Substance P,+ (“+” indicates greater than 50% inhibition at 10 μM)
same,"A7: inhibition of radioligand binding, human μ-opioid (MOP)",Human μ-opioid (MOP); [3H]-Naloxone,− (“−” indicates less than 50% inhibition at 10 μM)
same,"A1: inhibition of radioligand binding, human δ-opioid (DOP)",Human δ-opioid (DOP); [3H]-Bremazocine,− (“−” indicates less than 50% inhibition at 10 μM)
same,"A6: inhibition of radioligand binding, human melanin-concentrating hormone (MCH1)",[2]; [125I]-S36057,− (“−” indicates less than 50% inhibition at 10 μM)
same,"A2: inhibition of radioligand binding, human κ-opioid (KOP)",Human κ-Opioid (KOP); [3H]-Diprenorphine,− (“−” indicates less than 50% inhibition at 10 μM)
same,"A3: inhibition of radioligand binding, human melanocortin (MC3)",Human Melanocortin (MC3); [125I]-NDP-αMSH,− (“−” indicates less than 50% inhibition at 10 μM)
same,"A5: inhibition of radioligand binding, human melanocortin (MC5)",Human melanocortin (MC5); [125I]-NDP-αMSH,− (“−” indicates less than 50% inhibition at 10 μM)
same,"A4: inhibition of radioligand binding, human melanocortin (MC4)",Human Melanocortin (MC4); [125I]-NDP-αMSH,− (“−” indicates less than 50% inhibition at 10 μM)
same,"A10: inhibition of radioligand binding, human opioid (ORL1)",Human opioid (ORL1); [125I]-Nociceptin,− (“−” indicates less than 50% inhibition at 10 μM)
same,"A11: inhibition of radioligand binding, mouse urotensin (mUR2)",Mouse urotensin (mUR2); [125I]-Urotensin II,− (“−” indicates less than 50% inhibition at 10 μM)
CO[C@H]1[C@H](O)[C@@H](COCc2ccc(Cl)cc2)OC(OCc2cccc(O)c2)[C@@H]1NC(=O)CCCN (stereo partly shown) [compound 169],"A9 radioligand binding, percentage inhibition",[1]; [125I]-PYY,− (“−” indicates less than 50% inhibition at 10 μM)
same,"A8 radioligand binding, percentage inhibition",Human neurokinin (NK1); [125I]-Substance P,+ (“+” indicates greater than 50% inhibition at 10 μM)
same,"A7 radioligand binding, percentage inhibition",Human μ-opioid (MOP); [3H]-Naloxone,− (“−” indicates less than 50% inhibition at 10 μM)
same,"A1 radioligand binding, percentage inhibition",Human δ-opioid (DOP); [3H]-Bremazocine,− (“−” indicates less than 50% inhibition at 10 μM)
same,"A6 radioligand binding, percentage inhibition",[2]; [125I]-S36057,− (“−” indicates less than 50% inhibition at 10 μM)
same,"A2 radioligand binding, percentage inhibition",Human κ-Opioid (KOP); [3H]-Diprenorphine,− (“−” indicates less than 50% inhibition at 10 μM)
same,"A3 radioligand binding, percentage inhibition",Human Melanocortin (MC3); [125I]-NDP-αMSH,− (“−” indicates less than 50% inhibition at 10 μM)
same,"A5 radioligand binding, percentage inhibition",Human melanocortin (MC5); [125I]-NDP-αMSH,− (“−” indicates less than 50% inhibition at 10 μM)
same,"A4 radioligand binding, percentage inhibition",Human Melanocortin (MC4); [125I]-NDP-αMSH,− (“−” indicates less than 50% inhibition at 10 μM)
same,"A10 radioligand binding, percentage inhibition",Human opioid (ORL1); [125I]-Nociceptin,− (“−” indicates less than 50% inhibition at 10 μM)
same,"A11 radioligand binding, percentage inhibition",Mouse urotensin (mUR2); [125I]-Urotensin II,− (“−” indicates less than 50% inhibition at 10 μM)
NCCC(=O)N[C@H]1C(OCc2ccc3ccccc3c2)O[C@H](COCc2ccc(Cl)cc2)[C@@H](O)[C@@H]1OCc1ccc2ccccc2c1 (stereo partly shown) [compound 446],A9: inhibition of radioligand binding,"[1]; [125I]-PYY, human NPY-Y1 membranes",− (“−” indicates less than 50% inhibition at 10 μM)
same,A8: inhibition of radioligand binding,"Human neurokinin (NK1); [125I]-Substance P, human NK1 membranes",+ (“+” indicates greater than 50% inhibition at 10 μM)
same,A7: inhibition of radioligand binding,"Human μ-opioid (MOP); [3H]-Naloxone, human MOP membranes",− (“−” indicates less than 50% inhibition at 10 μM)
same,A1: inhibition of radioligand binding,"Human δ-opioid (DOP); [3H]-Bremazocine, human DOP membranes",− (“−” indicates less than 50% inhibition at 10 μM)
same,A6: inhibition of radioligand binding,"[2]; [125I]-S36057, human MCH1 membranes, 10 µM",− (“−” indicates less than 50% inhibition at 10 μM)
same,A2: inhibition of radioligand binding,"Human κ-Opioid (KOP); [3H]-Diprenorphine, human KOP membranes",− (“−” indicates less than 50% inhibition at 10 μM)
same,A3: inhibition of radioligand binding,"Human Melanocortin (MC3); [125I]-NDP-αMSH, human MC3 membranes, 10 µM",− (“−” indicates less than 50% inhibition at 10 μM)
same,A5: inhibition of radioligand binding,"Human melanocortin (MC5); [125I]-NDP-αMSH, human MC5 membranes",+ (“+” indicates greater than 50% inhibition at 10 μM)
same,A4: inhibition of radioligand binding,"Human Melanocortin (MC4); [125I]-NDP-αMSH, human MC4 membranes, 10 µM",− (“−” indicates less than 50% inhibition at 10 μM)
same,A10: inhibition of radioligand binding,"Human opioid (ORL1); [125I]-Nociceptin, human ORL1 membranes",− (“−” indicates less than 50% inhibition at 10 μM)
same,A11: inhibition of radioligand binding,"Mouse urotensin (mUR2); [125I]-Urotensin II, mouse mUR2 membranes",− (“−” indicates less than 50% inhibition at 10 μM)
